Assays:
Assay type in all cases: cell-based
22Rv-1 = assay: 3D Cell Proliferation Screen, 22Rv-1; conditions: Homo sapiens, 22Rv1, 120 h; 22Rv-1 prostate spheroids, 5 days; relative to T0; positive control
Method: (§1) Experimental Methods: 3D Cell Proliferation Assay
(§2) Cells were seeded at 1000 cells/well in media in 384-well Corning® Spheroid microplates. The microplates were incubated at 37 C in 5% CO2 incubator to allow for spheroid formation.
(§3) Aliquots of each sample were vortexed and centrifuged at 3,000 rpm (800 g) for 5 minutes at room temperature. Supernatants (500-fold stocks) were stored under sterile conditions at 4 C.
(§4) On the day of the assay, a 9-point dose-response of each 500-fold stock was prepared and added to the spheroid plates to provide final assay concentrations ranging from 1e-04 to 1-fold, in 0.2% DMSO. Final assay conditions for each sample are shown on Table 1.
(§5) Assay plates were incubated at 37 C in an atmosphere containing 5% CO2 for 5 days. […] Cell viability was determined at 5 days post-compound addition. Briefly, 3D-CellTiter Glow™ reagent (Promega) was added to assay plates per the manufacturer's recommendations. Plates were shaken until spheroids were lysed and luminescence was read at room temperature.
(§6) Cell proliferation end point was analyzed as Percent of Control (POC) using the following formula: […]
(§7) EC50, IC50 and GI50 values were calculated using nonlinear regression to fit data to a sigmoidal 4-point, 4-parameter log-logistic dose response model: […]

NCI-H460 = assay: 3D Cell Proliferation Screen, NCI-H460; conditions: Homo sapiens, 120 h; NCI-H460 lung spheroids, 5 days; relative to T0; positive control
Method: as §1, §2, §3, §4, §5, §6, §7

BT-474 = assay: 3D Cell Proliferation Screen, BT-474; conditions: Homo sapiens, 120 h; BT-474 breast spheroids, 5 days; relative to T0; positive control
Method: as §1, §2, §3, §4, §5, §6, §7

T24 = assay: 3D Cell Proliferation Screen, T24; conditions: Homo sapiens, T-24, 120 h, T24 bladder spheroids, 5 days, positive control
Method: as §1, §2, §3, §4, §5, §6
(§8) A relative cell count EC50 is the concentration of the test compound that produces a response half-way between the maximum and baseline. Relative cell count IC50 is the concentration of the test compound that produces 50% of the cell proliferation inhibitory response or 50% cytotoxicity level. GI50 is the concentration of the test compound that produces 50% reduction in proliferation of cancer cells relative to T0. The output of each biomarker is fold-increase over vehicle control background normalized to the relative cell count in each well.
(§9) EC50, IC50 and GI50 values were calculated using nonlinear regression to fit data to a sigmoidal 4-point, 4-parameter log-logistic dose response model:
(§10) Curve-fitting and EC50 calculations were performed using the R statistical software package with R's drc library.

HT-29 = assay: 3D Cell Proliferation Screen, HT-29; conditions: Homo sapiens, 120 h, HT-29 colon spheroids, 5 days, positive control
Method: as §1, §2, §3, §4, §5, §6, §8, §9, §10

T-47D = assay: 3D Cell Proliferation Screen, T-47D; conditions: Homo sapiens, T47D, 120 h, T-47D breast spheroids, 5 days, positive control
Method: as §1, §2, §3, §4, §5, §6, §8, §9, §10

PC-3 = assay: 3D Cell Proliferation Screen, PC-3; conditions: Homo sapiens, 120 h, PC-3 prostate spheroids, 5 days, positive control
Method: as §1, §2, §3, §4, §5, §6, §7

A-549 = assay: 3D Cell Proliferation Screen, A-549; conditions: Homo sapiens, A549, 120 h, A-549 lung spheroids, 5 days, positive control
Method: as §1, §2, §3, §4, §5, §6, §7

CN[C@@H]1C[C@H]2O[C@@](C)([C@@H]1OC)n1c3ccccc3c3c4c(c5c6ccccc6n2c5c31)C(=O)NC4 [Staurosporine]
GI50 (22Rv-1): 13 nM
GI50 (NCI-H460): 17 nM
GI50 (BT-474): 3 nM
EC50 (T24): 13 nM
IC50 (T24): 13 nM
GI50 (T24; relative to T0): 1 nM
EC50 (HT-29): 9 nM
IC50 (HT-29): 9 nM
GI50 (HT-29; relative to T0): 7 nM
EC50 (T-47D): 101 nM
IC50 (T-47D): 101 nM
GI50 (T-47D; relative to T0): 38 nM
IC50 (PC-3): 4 nM
GI50 (PC-3; relative to T0): 1 nM
EC50 (A-549): 17 nM
GI50 (A-549; relative to T0): 11 nM

— patent publication US20240091292A1, “METHODS FOR TREATMENT OF HUMAN CANCERS USING CANNABIS COMPOSITIONS” (Apollon Formularies PLC, priority 2021, published 2024)
